How the values were obtained:
[1] = Aminoglycoside cytotoxicity in HK-2 cells (Alamar Blue); type: cell-based, Human; settings: human
Method: (§1) Human kidney cortex proximal tubule cells (HK-2) were purchased from ATCC and maintained according to manufacturer's recommendations in Keratinocyte Serum-Free Media (SFM; Invitrogen), with 0.05 mg/ml bovine pituitary extract and 5 ng/ml of Epidermal growth factor.
(§2) Solutions of aminoglycosides at a concentration of 50 mg/mL (both control and novel test compounds) were prepared in sterile deionized water. Before treatment of cells, the concentrated drug solutions were diluted to the appropriate concentration in Keratinocyte SFM {20, 10, 5, 2.5, 1.25, 0.6, 0.3, and 0 mM}. Pentamidine was used as a positive control.
(§3) HK-2 cells were seeded at 2.5*10^4 cells/well density in 96-well plates in Keratinocyte SFM and placed in a 37° C. tissue culture CO2 incubator. […]. Each treatment was performed in duplicate. […] Drug solutions were aspirated and replaced with 0.1 ml of 5% Alamar Blue (Abd Serotec) cell proliferation reagent in Keratinocyte SFM. Plates were read on a Molecular Devices Gemini EM fluorometer pre-warmed at 37° C. at […]. Plates were read at 0 and 4 hrs, and were incubated at 37° C. in a CO2 incubator in between reads. The fluorescence signal at the 0 h timepoint was subtracted from that at 4 h to account for background fluorescence.
(§4) The cytotoxicity data were reported as the amount of drug producing a 50% decrease in Alamar Blue signal relative to the no drug treatment control.

[2] = test system: ECM6011 aph(3′)-I; assay: microbe, parasite or virus in culture; type: cell-based, Escherichia coli
Method in brief: (§5)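 Broth microdilution MICs per CLSI M7-A7, 2-fold dilutions in cation-adjusted Mueller Hinton broth, inoculum 5×10^5 CFU/ml, 18 h at 35 °C. Strains express aminoglycoside-modifying enzymes; MIC read by turbidity at 600 nm and confirmed visually.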

[3] = test system: ECM6009 aac(3)-II; assay: microbe, parasite or virus in culture; type: cell-based, Escherichia coli
Method in brief: as §5

[4] = test system: ECM6010 ant(2″)-I; assay: microbe, parasite or virus in culture; type: cell-based, Escherichia coli
Method in brief: as §5

[5] = test system: ECM6006 aph(3′)-III; assay: microbe, parasite or virus in culture; type: cell-based, Escherichia coli
Method in brief: as §5

[6] = test system: Escherichia coli (ATCC 25922); assay: MIC, broth microdilution
[7] = test system: Human kidney cortex proximal tubule cells (HK-2); assay: Aminoglycoside cytotoxicity in HK-2 cells (Alamar Blue); type: cell-based; settings: HK-2 cells, 50% decrease in Alamar Blue signal; read-out: IC50 @ 24 hrs
Method: as §1, §2, §3, §4

[8] = test system: EC1002 aph(3′)-IV; assay: organism not typed; type: cell-based
Method in brief: as §5

[9] = test system: PAM3073 aac(6′)-I; assay: microbe, parasite or virus in culture; type: cell-based, Pseudomonas aeruginosa; settings: Table 5
Method in brief: (§6)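 CLSI broth microdilution used 2-fold serial dilutions in cation-adjusted Mueller Hinton broth with an inoculum of 5×10^5 CFU/ml. Plates were incubated 18 hours at 35° C. MIC was read by turbidity at 600 nm and confirmed visually.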

[10] = test system: PAM3072 aac(6′)-II; assay: microbe, parasite or virus in culture; type: cell-based, Pseudomonas aeruginosa; settings: Table 5
Method in brief: as §6

[11] = test system: Sa 287 aac(6′) + aph(2″); assay: microbe, parasite or virus in culture; type: cell-based, Staphylococcus aureus; settings: Table 5
Method in brief: as §6

[12] = test system: Klebsiella pneumonia (ATCC 43816); assay: MIC, broth microdilution; settings: QC strain, Table 2
[13] = test system: Staphylococcus aureus (ATCC 29213); assay: MIC, broth microdilution
[14] = test system: Acinetobacter baumannii (ATCC 19606); assay: MIC, broth microdilution; settings: QC strain, Table 2
[15] = test system: Pseudomonas aeruginosa (ATCC 27853); assay: MIC, broth microdilution
[16] = test system: ACM1005 ATCC 19004; assay: MIC, broth microdilution; type: cell-based, Acinetobacter baumannii; settings: Table 4
Method in brief: as §6

[17] = test system: ECM6003 rmtB; assay: microbe, parasite or virus in culture; type: cell-based, Escherichia coli; settings: Table 3
Method in brief: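 Broth microdilution per CLSI M7-A7 in cation-adjusted Mueller Hinton broth with 2-fold serial dilutions and 5×10^5 CFU/ml inoculum. Incubated 18 hours at 35 °C; MIC read by turbidity at 600 nm and confirmed visually.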

[18] = test system: EC1001 acc(6′)-Ib; assay: microbe, parasite or virus in culture; type: cell-based, Escherichia coli; settings: Table 4
Method in brief: as §6

[19] = test system: ECM6007 aac(6′) + aph(2″); assay: microbe, parasite or virus in culture; type: cell-based, Escherichia coli; settings: Table 4
Method in brief: as §6

[20] = test system: ACM1006 acc(6′)-Ib; assay: microbe, parasite or virus in culture; type: cell-based, Acinetobacter baumannii; settings: Table 4
Method in brief: as §6

Compound: NCC[C@H](O)C(=O)N[C@@H]1C[C@H](N)[C@@H](O[C@H]2O[C@H](CN)CC[C@H]2N)[C@H](O)[C@H]1O[C@H]1O[C@H](CO)[C@@H](O)[C@H](N)[C@H]1O [Arbekacin, reference compound]
- IC50 at 24 h [1]: > 20 mM

Compound: Gentamicin [reference compound]
- Compound MIC on Bacterial Strains: ECM6011 aph(3′)-I [2]: B (key: A: MIC of 1 μg/ml or less; B: MIC of greater than 1 μg/ml to 8 μg/ml; MIC of greater than 8 μg/ml)
- Compound MIC on Bacterial Strains: ECM6009 aac(3)-II [3]: C (key: A: MIC of 1 μg/ml or less; B: MIC of greater than 1 μg/ml to 8 μg/ml; MIC of greater than 8 μg/ml)
- Compound MIC on Bacterial Strains: ECM6010 ant(2″)-I [4]: C (key: A: MIC of 1 μg/ml or less; B: MIC of greater than 1 μg/ml to 8 μg/ml; MIC of greater than 8 μg/ml)
- Compound MIC on Bacterial Strains: ECM6006 aph(3′)-III [5]: B (key: A: MIC of 1 μg/ml or less; B: MIC of greater than 1 μg/ml to 8 μg/ml; MIC of greater than 8 μg/ml)
- Compound MIC on Bacterial Strains: E. coli ATCC 25922 ([6]; QC strain, Table 2): A (MIC of 1 μg/ml or less)
- Compound MIC on Bacterial Strains: ECM6000 ATCC 25922 ([6]; Table 3): A (MIC of 1 μg/ml or less)
- Compound MIC on Bacterial Strains: Escherichia coli ECM6000 ATCC 25922 ([6]; Table 4): A (MIC of 1 μg/ml or less)
- IC50 [7]: > 20 mM
- Compound MIC on Bacterial Strains: EC1002 aph(3′)-IV [8]: B (key: A: MIC of 1 μg/ml or less; B: MIC of greater than 1 μg/ml to 8 μg/ml; MIC of greater than 8 μg/ml)
- Compound MIC on Bacterial Strains: Pseudomonas aeruginosa PAM3073 aac(6′)-I [9]: B (MIC of greater than 1 μg/ml to 8 μg/ml)
- Compound MIC on Bacterial Strains: Pseudomonas aeruginosa PAM3072 aac(6′)-II [10]: C (MIC of greater than 8 μg/ml)
- Compound MIC on Bacterial Strains: Staphylococcus aureus Sa 287 aac(6′) + aph(2″) [11]: C (MIC of greater than 8 μg/ml)
- Compound MIC on Bacterial Strains: K. pneumonia ATCC 43816 [12]: A (MIC of 1 μg/ml or less)
- Compound MIC on Bacterial Strains: S. aureus ATCC 29213 ([13]; QC strain, Table 2): A (MIC of 1 μg/ml or less)
- Compound MIC on Bacterial Strains: Staphylococcus aureus SAM1000 ATCC 29213 ([13]; Table 5): A (MIC of 1 μg/ml or less)
- Compound MIC on Bacterial Strains: A. baumannii ATCC 19606 [14]: C (MIC of greater than 8 μg/ml)
- Compound MIC on Bacterial Strains: P. aeruginosa ATCC 27853 ([15]; QC strain, Table 2): A (MIC of 1 μg/ml or less)
- Compound MIC on Bacterial Strains: Pseudomonas aeruginosa PAM3034 ATCC 27853 ([15]; Table 5): A (MIC of 1 μg/ml or less)
- Compound MIC on Bacterial Strains: Acinetobacter baumannii ACM1005 ATCC 19004 [16]: A (MIC of 1 μg/ml or less)
- Compound MIC on Bacterial Strains: ECM6003 rmtB [17]: C (MIC of greater than 8 μg/ml)
- Compound MIC on Bacterial Strains: Escherichia coli EC1001 acc(6′)-Ib [18]: B (MIC of greater than 1 μg/ml to 8 μg/ml)
- Compound MIC on Bacterial Strains: Escherichia coli ECM6007 aac(6′) + aph(2″) [19]: B (MIC of greater than 1 μg/ml to 8 μg/ml)
- Compound MIC on Bacterial Strains: Acinetobacter baumannii ACM1006 acc(6′)-Ib [20]: B (MIC of greater than 1 μg/ml to 8 μg/ml)

Source: patent US8906868B2, “Aminoglycoside derivatives” (Rempex Pharmaceuticals, Inc., priority 2010, dated 2014)
